One data set relates to J774A.1 cells. As to the kind of experiment: Cytotoxicity, resazurin assay, normal J774A.1 cells. In kind it is cell-based. To be noted: Mus musculus, J774.A1, 48 h, DFO equivalents, read-out: Concentration giving 50% cell viability.
Another data set can be described thus: in vitro. The note with it: mouse. The method, then:
(§1) Mouse macrophage/monocyte cell line, J774A.1, was purchased from American Type Culture Collection (ATCC). Cells were seeded in 96-well plates at a density of 3,000 cells/well, cultured at 37° C., 5% CO2 with DMEM complete medium (supplemented with 10% (v/v) heat-inactivated FBS, 100 I.U./mL penicillin and 100 μg/mL streptomycin), and allowed to settle for 24 h. Cells were then treated with DFO or oxNG-DFO at equivalent DFO concentrations of 1 mM prepared by 1:3 serial dilutions.
(§2) Cell viability was measured with the metabolism-based resazurin assay. Briefly, the substrate resazurin was dissolved in cell culture medium at a concentration of 44 μM, added to each well (100 μl) and incubated at 37° C. for 4 h. The fluorescence was measured with excitation at 560 nm and emission at 590 nm, on a SpectraMax Gemini EM microplate reader. Readings from the wells without cells were used as Eblank, and the readings from control cells without treatment (Econtrol) represented 100% cell viability. The viability of treated cells at different concentrations can be calculated by the following equation: […]
(§3) Similarly, cytotoxicity was also evaluated in iron-overloaded J774A.1 cells as described above.
(§4) To evaluate the cytotoxicity of the nanogels, cells in complete DMEM medium were treated with equivalent amounts of free DFO or oxNG2-DFO ranging from 0.05-1000 μM and allowed to incubate for 48 h prior to evaluating cytotoxicity with a metabolism-based resazurin assay.

In data set [1] the test system is iron-overloaded J774A.1 cells. As to the kind of experiment: cells. To be noted: Mus musculus, J774.A1, 48 h, read-out: Concentration giving 50% cell viability. Here is the method:
as §1, §2, §3, §4

Data set [2] concerns iron-overloaded J774A.1 cells. As to the kind of experiment: Ferritin reduction assay in iron overloaded J774A.1 cells. In kind it is cell-based, mouse. To be noted: for Ferritin decrease: 48 h. The method, then:
J774A.1 cells were seeded in 6-well plates at a density of 30,000 cell/well and allowed to settle for 24 h at 37° C., 5% CO2 with DMEM complete medium before treatment. […] Subsequently, cells were washed with PBS and treated with DFO or oxNG-DFO at both 10 μM and 50 μM for 48 h. […] After 48 h incubation with DFO or oxNG-DFO, cells were lysed with cell lysis buffer (150 mM NaCl, 10 mM Tris, 1% Triton X-100 and protease inhibitor cocktail, pH 7.4) and total protein concentration was measured with the BCA protein assay kit. Cellular ferritin concentration was measured with a mouse ferritin ELISA kit. The results are plotted as the ratio of ng of ferritin per μg total protein concentration.
Subsequently, iron-loaded cells were treated for 48 h with 10 μM or 50 μM free DFO or equivalent oxNG2-DFO.

Data set [3] deals with Human umbilical vein endothelial cells (HUVEC). As to the kind of experiment: Cytotoxicity, resazurin assay, HUVEC. The format is cell-based. To be noted: 48 h, DFO equivalents, read-out: Concentration to inhibit 50% cell growth. Here is the method: Human umbilical vein endothelial cells (HUVEC) were obtained from Lonza, Inc., and cultured at 37° C./5% CO2 in EGM-2 complete medium. For the cytotoxicity assay, cells were seeded into 96-well plates at a density of 3,000 cell/well and allowed to equilibrate for 2 days before treatment. […] Readings from the wells without cells were used as blanks (Eblank), and the readings taken from control cells without treatment (Econtrol) 1 represented 100% cell viability. The viability of treated cells at each concentration can be calculated by the following equation: Cell Viability=100×(Esample˜Eblank)/(Econtrol˜Eblank)%

“And” between values parts separate entries of the source, which are not always exact repeats. Equal values may be shown once. Where a name gives a salt, the structure may show the parent alone.

As for `CC(=O)N(O)CCCCCNC(=O)CCC(=O)N(O)CCCCCNC(=O)CCC(=O)N(O)CCCCCN` [DFO, Deferoxamine mesylate], the IC50 in the data set on J774A.1 cells is about 10 µM; in data set [1] it was about 15 µM; in data set [3] it was about 2 µM. Besides, the viability at 48 h, 10 μM in “in vitro” is about 50%. For the same compound, the viability at 48 h, 50 μM in the data set “in vitro” was under 50%. In addition, the Cellular ferritin level in data set [2] was 5.33 ng/μg total protein and 2.84 ng/μg total protein. Moreover, the Ferritin decrease in data set [2] (10 μM DFO or equivalent) is given as 37.4%; in data set [2] (50 μM DFO or equivalent) it was 66.6%.

As for Ferric ammonium citrate [FAC], in data set [2], the “Cellular ferritin expression after iron loading” value came to 8.51 ng/µg.

The values above are taken from patent publication US9968633B2, “Stimuli responsive compositions for iron chelation” (WISCONSIN ALUMNI RESEARCH FOUNDATION, priority 2014, dated 2018).
